Legend:
[1] = test system: calreticulin; assay: Calreticulin expression on infected L929 cell membrane; format: cell-based; conditions: L929 infected with MHV-A59 (FIG. 3)
Protocol: To determine if the P2Et extract of the invention can inhibit virus infection L929 cells were seeded in 12-well plates at a concentration of […] for well and cultured overnight. Cells were pretreated for 2 h with the P2Et or controls, washed twice with PBS 1× and inoculated with 200 μl of the virus suspension to 0.1, 0.01 or 0.001 MOI in DMEM, 1 h at room temperature in mechanical agitation. The virus inoculum was removed, the cells were treated again with extracts for 6, 12 and 24 h. Supernatants were collected for qPCR and plaque assays. The cells were collected for evaluation of proteins by western blot and ROS assays by flow cytometry.
Previously, we have shown that standardized P2Et extract induces immunogenic cell death (ICD), here the expression of calreticulin, a marker of ICD, was evaluated on the L929 cell membrane infected cells.

[2] = test system: SARS-CoV-2 virus; conditions: cited from earlier work

| Compound | expression of calreticulin induced by viral infection on L929 cell surface [1] | suppression of viral activity [2] |
| --- | --- | --- |
| CC(=O)N[C@@H](CS)C(=O)O [NAC, N-Acetylcysteine] | decreased |  |
| CCN(CC)CCCC(C)Nc1ccnc2cc(Cl)ccc12 (stereo not shown) [chloroquine] | decreased |  |
| O=c1c(O)c(-c2ccc(O)c(O)c2)oc2cc(O)cc(O)c12 [quercetin] | decreased |  |
| epigallocatechin-zinc gallate [EGCG-Zn^+2] |  | greater than 99% |

Source: patent publication US20230190848A1 (priority 2021, published 2023)
